Results on seven compounds are retold here after patent publication US11440880B2, “Thalidomide analogs and methods of use” (The USA, as represented by the Secretary, Department of …, priority 2015, dated 2022).

The structures appear in SMILES notation. Entries after “also recorded” stand apart in the source; their conditions may differ.

The subject of data set [1] is fli1:EGFP zebrafish embryos (intersegmental vessel growth). Briefly: fli1:EGFP zebrafish embryo angiogenesis assay. Format: in vivo. More on the design: fli1:EGFP angiogenesis n (survived/tested): concentration or dose not given beside the values. The following applies: for minimal effective concentration: Danio rerio, lowest concentration producing an effect, compounds not producing an effect shown at the highest evaluated concentration; for fli1:EGFP angiogenesis n (survived/tested): embryos alive after 24 hours of exposure. The procedure, abridged:
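fli1:EGFP embryos grown 24 hpf, dechorionated and exposed to compound or vehicle over a range of concentrations for up to 24 h, with CPS49 as positive control. Imaged at 48 hpf for intersegmental vessel formation and growth; survival after 24 h exposure recorded, and values reflect the lowest concentration producing an effect.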

In data set [2] the test system is mpo:GFP zebrafish embryos (neutrophil migration to the wound site). Briefly: mpo:GFP zebrafish fin-clip neutrophil migration (inflammation) assay. Format: in vivo. Set-up: mpo:GFP inflammation n (survived/tested): concentration or dose not given beside the values. The following applies: for minimal effective concentration: Danio rerio, Neutrophil, lowest concentration producing an effect, compounds not producing an effect shown at the highest evaluated concentration; for mpo:GFP inflammation n (survived/tested): embryos survived/tested at the concentration given. The method in brief: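 Tg(mpo::EGFP) larvae tail-fin clipped (dorsal third removed) at 72 hpf, then immersed in compound or vehicle. Neutrophils migrating to the wound site counted from images 24 h later; at least 50% reduction scored as anti-inflammatory. Viability and morphology also assessed.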

Data set [3] relates to WT zebrafish embryos. As to the kind of experiment: WT zebrafish embryo development / teratogenicity. To be noted: in words; at concentrations active in fli1:EGFP or mpo:GFP assays. The class given is in vivo, zebrafish (Danio rerio). The text has this: To determine the effects of the candidate compounds on embryonic development, two in vivo model systems (developing zebrafish and chicken embryos) were utilized.
Malformations in the development of the zebrafish embryo were noted, including inhibition of eye, otic vesicle and fin development (FIGS. 7A-7F). […] Embryos were screened at concentrations previously determined, in this study, to be anti-angiogenic or anti-inflammatory in the fli1:EGFP and mpo:GFP assays respectively.
(§1) Concentrations used in the WT zebrafish and chicken embryo assays to assess for teratogenesis, were equal to or higher than those utilized in the fil1:EGFP and mpo:GFP zebrafish assays

In data set [4] the test system is chicken embryos. Briefly: Chicken embryo development / teratogenicity. The class given is in vivo, white leghorn chicken. The following applies: in words; applied at HH stage 17-18. The method, then: Chicken Embryology: Fertilized white leghorn chicken embryos were incubated at 38° C. and staged according to Hamburger and Hamilton (HH) stages of development (1951). Embryos were tested at HH stage 17-18 (day 2.5). Following membrane removal, test compounds or vehicle control solutions were applied globally over the embryo. The eggs were sealed and the development of the embryos was monitored up to HH stage 30 (E9).
Compounds of interest were screened in chicken embryos (FIGS. 7I-7P).
as §1

Data set [5] deals with TNF-α protein. Briefly: TNF-α protein level (ELISA) in LPS-challenged RAW 264.7 cells. Format: cell-based, mouse. More on the design: key: NS=not significant; a “+” sign=anti-inflammatory or increased cell numbers; a “−” sign=cell toxicity or pro-inflammatory. To be noted: LPS 30 or 60 ng/mL, 24 h. The method in brief: (§2)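 RAW 264.7 cells pretreated 1 h with compound in DMSO vehicle, then challenged with LPS (30 or 60 ng/mL) for 24 h at 37° C. Conditioned-media nitrite by Griess (520 nm, sodium nitrite standard curve, 1.5 μM cutoff) in μM; mouse TNF-α by ELISA as pg/ml or % change from control.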

The subject of data set [6] is nitrite levels in the culture media. As to the kind of experiment: Nitrite level (Griess Reagent System) in LPS-challenged RAW 264.7 cells. Format: cell-based, mouse. Set-up: key: NS=not significant; a “+” sign=anti-inflammatory or increased cell numbers; a “−” sign=cell toxicity or pro-inflammatory. To be noted: LPS 30 or 60 ng/mL, 24 h. The procedure, abridged:
as §2
A general note: Griess reagent forms a coloured azo dye with nitrite.

Data set [7] relates to RAW 264.7 cells. Briefly: Cell viability (CellTiter 96 AQueous One) of LPS-challenged RAW 264.7 cells. Format: cell-based, mouse. More on the design: key: NS=not significant; a “+” sign=anti-inflammatory or increased cell numbers; a “−” sign=cell toxicity or pro-inflammatory. The procedure, abridged: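 RAW 264.7 murine macrophages pretreated 1 h with compound or DMSO vehicle, then challenged with LPS (serotype 055:B5) at 30 or 60 ng/mL final for 24 h. After media replacement, viability measured by tetrazolium (MTS) conversion, absorbance at 490 nm, reported as O.D.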

The subject of data set [8] is human saphenous vein sections (microvessel outgrowth). Briefly: Human saphenous vein assay of angiogenesis (ex vivo). Format: cell-based. The following applies: positive control, 10 days of incubation. The procedure:
The saphenous vein was cleaned of subcutaneous tissue and embedded in Matrigel® matrix as previously described. After 10 days of incubation, the transverse sections of the veins were imaged. The outgrowth between the vehicle and no treatment (media) control was equivalent (106.65%±20.14, n=2 and 103.35%±4.06, n=2 respectively; FIGS. 13A and 13B).

In general, minimal effective concentration refers to the smallest amount tested that counted as effective. In the case of `O=C1c2ccccc2C(=S)N1C1CCC(=S)NC1=S` (stereo not drawn) [Compound 4], in data set [1], the minimal effective concentration stood at 1.5 µg/mL and the “fli1:EGFP angiogenesis n (survived/tested)” value is listed as 4/11. The “concentration at which anti-angiogenic activity was shown” value in data set [1] (exposure from 24 hpf, imaged at 48 hpf) worked out at 1.5 µg/mL. Further, in data set [2], the minimal effective concentration was found to be 10 µg/mL and the “mpo:GFP inflammation n (survived/tested)” value is on record as 19/23. The “effect on development / mortality of zebrafish embryos” value in data set [3] is “defects and high mortality rates; also recorded: induced defects (e.g., microophthalmia and fin malformation)”. Besides, the “effect on development / mortality of chicken embryos” value in data set [4] is “defects and high mortality rates”.
For the compound `Nc1ccc2c(c1)C(=O)N(C1CCC(=O)NC1=O)C2=O` (stereo not drawn) [Compound 11], in data set [1], the minimal effective concentration amounted to 50 µg/mL and the “fli1:EGFP angiogenesis n (survived/tested)” value was 24/43. Also, in data set [2], the minimal effective concentration was found to be 10 µg/mL and the “mpo:GFP inflammation n (survived/tested)” value is 16/22. The “effect on development / mortality of chicken embryos” value in data set [4] is reported as “missing digits in the hindlimb; also recorded: limb reduction defect”.
As for `O=C1NC(=S)CCC1N1C(=O)c2ccc(Cl)cc2C1=O` (stereo not drawn) [Compound 23], in data set [1], the minimal effective concentration turned out to be 10 µg/mL and the “fli1:EGFP angiogenesis n (survived/tested)” value is given as 23/30. Besides, in data set [2], the minimal effective concentration came to 10 µg/mL and the “mpo:GFP inflammation n (survived/tested)” value is reported as 13/35. Besides, the “effect on development / mortality of chicken embryos” value in data set [4] was “constriction in vasculature (white arrow) and necrosis (black arrow) of the chorioallantoic membrane”.
Take `CC(N1Cc2c(cccc2[N+](=O)[O-])C1=O)C12CC3CC(CC(C3)C1)C2` (stereo not drawn) [Compound 80]: the “effect on development / mortality of chicken embryos” value in data set [4] was “microophthalmia (asterisk), limb reduction (white arrow), and hemorrhaging throughout the body”. Also, the TNF-α entry is reported as “NS” in data set [5] (1 μM), “+” in data set [5] (10 μM) and “+” in data set [5] (30 μM). Also, the results for the Nitrite result in data set [6] (1 μM), in data set [6] (10 μM) and in data set [6] (30 μM) were “NS”, “+” and “+”, respectively. Besides, the figures for the Viability result in data set [7] (1 μM), in data set [7] (10 μM) and in data set [7] (30 μM) were “NS”, “−” and “NS”, respectively.
Take `O=C1c2cccc([N+](=O)[O-])c2CN1C12CC3CC(CC1C3)C2` [Compound 84]: the minimal effective concentration in data set [1] was determined as 50 µg/mL; in data set [2], 10 µg/mL. Moreover, the “fli1:EGFP angiogenesis n (survived/tested)” value in data set [1] is on record as 2/11. Further, in data set [2], the “mpo:GFP inflammation n (survived/tested)” value is given as 12/21. Moreover, the TNF-α result in data set [5] (1 μM), in data set [5] (10 μM) and in data set [5] (30 μM) was “NS” throughout. The Nitrite result in data set [6] (1 μM) is “NS”; in data set [6] (10 μM), “+”; in data set [6] (30 μM), “+”. The Viability entry in data set [7] (1 μM), in data set [7] (10 μM) and in data set [7] (30 μM) was “NS” throughout.
Turning to `Nc1cccc2c1CN(C13CC4CC(CC1C4)C3)C2=O` [Compound 85], the values for the minimal effective concentration in data set [1] and in data set [2] were 10 µg/mL and 100 µg/mL, respectively. Also, the “fli1:EGFP angiogenesis n (survived/tested)” value in data set [1] is recorded as 7/20. In data set [2], the “mpo:GFP inflammation n (survived/tested)” value was 11/20. Moreover, the TNF-α entry in data set [5] (1 μM), in data set [5] (10 μM) and in data set [5] (30 μM) was “NS” throughout. Besides, the Nitrite result is “NS” in data set [6] (1 μM), “NS” in data set [6] (10 μM) and “−” in data set [6] (30 μM). Moreover, the Viability result in data set [7] (1 μM), in data set [7] (10 μM) and in data set [7] (30 μM) was “NS” each time.
Consider `CO[C@@H]1[C@H](OC(=O)NC(=O)CCl)CC[C@]2(CO2)[C@H]1[C@@]1(C)O[C@@H]1CC=C(C)C` [TNP-470, (Chloracetyl) carbamic acid (3R,4S,5S,6R)-5-methoxy-4-[(2R,3R)-2-methyl-3-(3-methyl-2-butenyl)oxiranyl]-1-oxaspiro[2.5]oct-6-yl ester, reference compound], for which the vessel outgrowth in data set [8] is recorded as 9.44%±1.65.
